This is an account of results in ChEMBL document CHEMBL4390670, “4-Aryl Pyrrolidines as a Novel Class of Orally Efficacious Antimalarial Agents. Part 1: Evaluation of 4-Aryl- N-benzylpyrrolidine-3-carboxamides” (J Med Chem, 2019).

Structures are written as SMILES.

The subject of one data set is Plasmodium falciparum. The data set can be described thus: microbe, parasite or virus in culture. As to conditions: 3D7, 72 h.
The nature of data set [1]: Intrinsic clearance in mouse liver microsomes at 1 uM measured after 30 mins in presence of NADPH by LC-MS/MS analysis. As to conditions: 0.5 h. The class given is ADME, Microsome. For orientation: Microsomes from liver hold many membrane-bound enzymes, among them those of drug oxidation.
The target of data set [2] is Voltage-gated inwardly rectifying potassium channel KCNH2 (Homo sapiens, UniProt Q12809).
Voltage-gated inwardly rectifying potassium channel KCNH2, sequence (Q12809 whole entry): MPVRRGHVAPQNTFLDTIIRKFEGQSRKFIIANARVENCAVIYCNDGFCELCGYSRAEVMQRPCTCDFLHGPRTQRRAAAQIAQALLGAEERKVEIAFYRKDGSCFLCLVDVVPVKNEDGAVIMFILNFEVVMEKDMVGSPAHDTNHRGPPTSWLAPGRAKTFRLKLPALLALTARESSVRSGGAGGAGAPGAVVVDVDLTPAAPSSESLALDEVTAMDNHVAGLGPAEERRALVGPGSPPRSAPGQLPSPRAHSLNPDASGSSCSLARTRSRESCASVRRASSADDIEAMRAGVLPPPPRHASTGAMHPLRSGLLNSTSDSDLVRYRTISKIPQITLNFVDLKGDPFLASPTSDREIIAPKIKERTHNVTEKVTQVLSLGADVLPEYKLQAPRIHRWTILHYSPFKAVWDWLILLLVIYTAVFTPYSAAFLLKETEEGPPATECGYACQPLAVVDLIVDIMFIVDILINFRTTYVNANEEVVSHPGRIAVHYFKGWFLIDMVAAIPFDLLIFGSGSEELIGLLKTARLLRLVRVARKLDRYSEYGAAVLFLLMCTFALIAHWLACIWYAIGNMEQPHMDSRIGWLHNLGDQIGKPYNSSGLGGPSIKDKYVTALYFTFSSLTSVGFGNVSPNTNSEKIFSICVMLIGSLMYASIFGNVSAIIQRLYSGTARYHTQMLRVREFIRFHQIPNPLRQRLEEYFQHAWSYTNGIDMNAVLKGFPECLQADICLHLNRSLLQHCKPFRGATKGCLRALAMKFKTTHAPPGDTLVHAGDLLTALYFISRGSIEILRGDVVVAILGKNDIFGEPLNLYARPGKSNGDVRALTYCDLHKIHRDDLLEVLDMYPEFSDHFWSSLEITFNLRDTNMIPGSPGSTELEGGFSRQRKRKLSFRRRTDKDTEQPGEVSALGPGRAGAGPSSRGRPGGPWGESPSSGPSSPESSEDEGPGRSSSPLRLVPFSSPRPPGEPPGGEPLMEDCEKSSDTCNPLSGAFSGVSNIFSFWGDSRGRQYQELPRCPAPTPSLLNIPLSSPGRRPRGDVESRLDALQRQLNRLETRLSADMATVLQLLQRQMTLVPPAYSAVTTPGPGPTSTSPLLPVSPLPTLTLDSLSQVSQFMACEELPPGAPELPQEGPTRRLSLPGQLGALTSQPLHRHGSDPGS
Description: Inhibition of Tracer Red binding to human ERG expressed in membranes by fluorescence polarization assay
The next data set deals with Beta-secretase 1 (Homo sapiens, UniProt P56817). Put plainly: Inhibition of recombinant human C-terminal His10-tagged BACE1 using Mca-SEVNLDAEFRK(Dpn)RR-NH2 as substrate measured after 60 mins by TR-FRET assay. On the technique in general: Time-resolved FRET reads energy transfer from a long-lived donor to a nearby acceptor.
Beta-secretase 1, sequence (P56817 whole entry): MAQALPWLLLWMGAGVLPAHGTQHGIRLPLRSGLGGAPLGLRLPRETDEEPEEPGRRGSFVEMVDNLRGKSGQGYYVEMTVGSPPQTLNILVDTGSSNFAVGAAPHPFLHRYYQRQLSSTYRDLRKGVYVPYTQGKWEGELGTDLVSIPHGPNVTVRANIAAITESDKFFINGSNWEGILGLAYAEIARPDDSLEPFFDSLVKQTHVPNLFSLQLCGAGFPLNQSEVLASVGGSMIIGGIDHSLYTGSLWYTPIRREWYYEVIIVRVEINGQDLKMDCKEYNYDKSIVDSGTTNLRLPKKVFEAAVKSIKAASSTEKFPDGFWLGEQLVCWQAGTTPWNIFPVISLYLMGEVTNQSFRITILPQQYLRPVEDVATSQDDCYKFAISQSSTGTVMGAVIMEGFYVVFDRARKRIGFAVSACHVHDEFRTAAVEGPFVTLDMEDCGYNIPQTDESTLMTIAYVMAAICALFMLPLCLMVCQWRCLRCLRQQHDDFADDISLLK
In another data set the target is Plasmepsin 4 (Plasmodium falciparum, UniProt Q17SB2). Put plainly: Inhibition of Plasmodium falciparum plasmepsin 4 using EDANS-CO-CH2-CH2-CO-ALERMFLSFP-Dap(DABCYL)OH as substrate measured after 60 mins by fluorescence assay.
Plasmepsin 4, sequence (Q17SB2 whole entry): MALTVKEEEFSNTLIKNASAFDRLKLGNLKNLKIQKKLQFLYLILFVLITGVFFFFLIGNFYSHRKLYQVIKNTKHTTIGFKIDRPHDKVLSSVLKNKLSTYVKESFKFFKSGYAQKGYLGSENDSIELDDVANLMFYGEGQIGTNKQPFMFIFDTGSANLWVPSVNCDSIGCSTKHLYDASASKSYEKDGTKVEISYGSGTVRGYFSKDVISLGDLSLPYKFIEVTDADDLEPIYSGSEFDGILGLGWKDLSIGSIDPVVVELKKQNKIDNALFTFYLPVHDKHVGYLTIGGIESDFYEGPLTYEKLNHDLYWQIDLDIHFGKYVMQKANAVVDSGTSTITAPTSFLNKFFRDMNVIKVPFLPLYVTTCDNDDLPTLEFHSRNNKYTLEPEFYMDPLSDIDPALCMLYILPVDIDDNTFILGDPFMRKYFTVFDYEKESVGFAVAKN
Data set [3] can be described thus: Half life in mouse liver microsomes at 1 uM measured after 30 mins in presence of NADPH by LC-MS/MS analysis. It counts as ADME, Microsome. As to conditions: microsomes, 0.5 h, 1 µM.
In another data set the target is Plasmepsin II (Plasmodium falciparum, UniProt P46925). Put plainly: Inhibition of Plasmodium falciparum plasmepsin 2 using EDANS-CO-CH2-CH2-CO-ALERMFLSFP-Dap(DABCYL)OH as substrate measured after 60 mins by fluorescence assay.
Plasmepsin II, sequence (P46925 whole entry): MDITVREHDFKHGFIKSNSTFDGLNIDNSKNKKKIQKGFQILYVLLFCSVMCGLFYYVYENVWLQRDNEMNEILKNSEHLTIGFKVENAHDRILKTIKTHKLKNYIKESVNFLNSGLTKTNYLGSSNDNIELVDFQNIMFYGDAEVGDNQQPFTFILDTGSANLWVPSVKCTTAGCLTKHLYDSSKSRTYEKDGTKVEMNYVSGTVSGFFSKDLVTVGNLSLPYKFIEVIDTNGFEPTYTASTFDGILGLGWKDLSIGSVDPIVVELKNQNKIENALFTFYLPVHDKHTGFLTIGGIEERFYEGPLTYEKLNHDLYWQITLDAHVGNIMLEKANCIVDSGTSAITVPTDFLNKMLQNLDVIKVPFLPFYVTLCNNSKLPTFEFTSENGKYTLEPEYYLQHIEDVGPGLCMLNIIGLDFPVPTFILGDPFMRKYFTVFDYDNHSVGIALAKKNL
In the next data set the test system is hERG. Put plainly: in vitro. As to conditions: human, membranes expressing human ERG, probe Tracer Red.

Description for Plasmodium falciparum: Antimalarial activity against chloroquine-sensitive Plasmodium falciparum 3D7 measured after 72 hrs by SYBR Green 1 dye based fluorescence assay
Description for hERG: Selectivity ratio of IC50 for inhibition of Tracer Red binding to human ERG expressed in membranes to IC50 for chloroquine-sensitive Plasmodium falciparum 3D7

`O=C(NCc1ccc(N2CCCC2)cc1)[C@H]1CNC[C@@H]1c1ccc(C(F)(F)F)nc1` (racemic): in the data set with Plasmodium falciparum, the IC50 – broadly, the midpoint of a concentration-inhibition curve – stood at 640 nM. On the same count and under the same terms, next, `CN(C)c1ccc(CNC(=O)[C@H]2CNC[C@@H]2c2cccc(S(F)(F)(F)(F)F)c2)cc1` (racemic): 410 nM; `CN(C)c1ccc(CNC(=O)[C@@H]2CNC[C@H]2c2ccc(C(F)(F)F)cc2F)cc1` (racemic): 890 nM. For the molecule `O=C(NCc1ccc(-n2cccn2)cc1)[C@H]1CNC[C@@H]1c1ccc(C(F)(F)F)nc1`, in the data set with Plasmodium falciparum, the IC50 is 29000 nM. The same measure, in the same setting: next, `CN(C)c1ccc(CNC(=O)[C@@H]2CNC[C@H]2c2ccc(Cl)c(Cl)c2)cc1` (racemic): 130 nM. Regarding `CN(C)c1ccc(CNC(=O)[C@H]2CNC[C@@H]2c2ccc(C(F)(F)F)cc2)cc1` (racemic), in data set [1], the “Intrinsic clearance (CLint)” value amounted to 6.2 µL/min/mg. Also, the IC50 in data set [2] is 9410 nM; at Beta-secretase 1 it was more than 10000 nM; against Plasmepsin 4, more than 10000 nM; on Plasmepsin II, more than 10000 nM; in the data set with Plasmodium falciparum, 200 nM. The t1/2 in data set [3] came out at 35 min.

In the data set on Plasmodium falciparum, `CN1CCc2cc(CNC(=O)[C@@H]3CNC[C@H]3c3ccc(C(F)(F)F)cc3)ccc21` (racemic) yielded an IC50 of 230 nM. The same measure, in the same setting: the figure for `CN(C)c1ccc(CNC(=O)[C@H]2CNC[C@@H]2c2ccc(C(C)(F)F)cc2)cc1` (racemic) is 130 nM; for `CN(C)c1ccc(CNC(=O)[C@H]2CNC[C@@H]2c2ccc(S(F)(F)(F)(F)F)cc2)cc1` (racemic) it is 470 nM; for `O=C(NCc1ccccc1)[C@@H]1CNC[C@H]1c1ccc(C(F)(F)F)cc1` (racemic) it is 4300 nM. With `CN(C)c1ccc(CNC(=O)[C@@H]2CNC[C@H]2c2cccc(Oc3ccccc3)c2)cc1` (racemic), half-maximal inhibition in the data set on Plasmodium falciparum (IC50) was put at 1800 nM. On to `CN(C)c1ccc(CNC(=O)[C@@H]2CNC[C@H]2c2ccc(C(F)(F)F)c(Cl)c2)cc1` (racemic), for which the “Intrinsic clearance (CLint)” value in data set [1] was 6.7 µL/min/mg. For the same molecule, the IC50 in data set [2] was 7560 nM; at Beta-secretase 1, more than 10000 nM; against Plasmepsin 4, more than 10000 nM; at Plasmepsin II, more than 10000 nM; in the data set on Plasmodium falciparum, 83 nM. Also, the t1/2 in data set [3] was found to be 33 min. `O=C(NCc1ccc(C(F)(F)F)nc1)[C@H]1CNC[C@@H]1c1ccc(C(F)(F)F)nc1` yielded an IC50 in the data set with Plasmodium falciparum of 18000 nM. In turn, `CN(C)c1ccc(CNC(=O)[C@H]2CNC[C@@H]2c2ccc3ccsc3c2)cc1` (racemic) returned an IC50 in the data set on Plasmodium falciparum of 240 nM. Same read-out and setting: the figure for `CN(C)c1ccc(CNC(=O)[C@@H]2CNC[C@H]2CCc2ccc(C(F)(F)F)cc2)cc1` (racemic) is 4400 nM.

For `CN(C)c1ccc(CNC(=O)[C@H]2CNC[C@@H]2c2cnc(C(F)(F)F)nc2)cc1` (racemic), the IC50 in data set [2] was more than 50000 nM; in the data set with Plasmodium falciparum, 450 nM. Besides, in the data set on hERG, the selectivity ratio is more than 111. With `CCN(CC)c1ccc(CNC(=O)[C@@H]2CNC[C@H]2c2ccc(C(F)(F)F)cc2)cc1` (racemic), the IC50 is 4740 nM in data set [2]; more than 10000 nM at Beta-secretase 1; more than 10000 nM at Plasmepsin 4; more than 10000 nM against Plasmepsin II; 600 nM with Plasmodium falciparum.

In turn, `C[C@H](NC(=O)[C@@H]1CNC[C@H]1c1ccc(C(F)(F)F)nc1)c1ccc(N(C)C)cc1` registered an IC50 in the data set with Plasmodium falciparum of 380 nM.

`CN(C)c1ccc(CNC(=O)[C@H]2CNC[C@@H]2c2cc3ccccc3o2)cc1` (racemic): the IC50 in the data set on Plasmodium falciparum came to 150 nM. Still for that read-out and setting: the figure for `CN(C)c1ccc(CNC(=O)[C@@H]2CNC[C@H]2c2ccc(C(C)(C)C)cc2)cc1` (racemic) is 190 nM; for `CN(C)c1ccc(CNC(=O)[C@H]2CNC[C@@H]2c2cc(C(F)(F)F)n(C)n2)cc1` (racemic) it is 5300 nM; for `CN(C)c1ccc(CNC(=O)[C@H]2CNC[C@@H]2c2ccc(C(F)F)cc2)cc1` (racemic) it is 250 nM.

Molecule `CN(C)c1ccc(CNC(=O)[C@@H]2CNC[C@H]2c2ccc(Oc3ccccn3)cc2)cc1` (racemic) registered an IC50 in the data set with Plasmodium falciparum of 16000 nM. As to `O=C(NCc1ccc(Br)cc1)[C@H]1CNC[C@@H]1c1ccc(C(F)(F)F)nc1`, in the data set with Plasmodium falciparum, the IC50 stood at 1200 nM.

`C[C@@H]1CC[C@H]2[C@@H](C)C(=O)O[C@@H]3O[C@@]4(C)CC[C@@H]1[C@]32OO4` [ARTEMISININ]: half-maximal inhibition in the data set on Plasmodium falciparum (IC50) was put at 54 nM. Still for that read-out and setting: next, `CN(C)c1ccc(CNC(=O)[C@@H]2CNC[C@H]2c2cnc3ccccc3c2)cc1` (racemic): 280 nM. For the molecule `C[C@H](NC(=O)[C@H]1CNC[C@@H]1c1ccc(C(F)(F)F)nc1)c1ccc(N(C)C)cc1`, the IC50 in data set [2] is more than 50000 nM; in the data set with Plasmodium falciparum, 140 nM. In addition, the selectivity ratio in the data set with hERG is more than 357. In the case of `CN(C)c1ccc(CNC(=O)[C@H]2CNC[C@@H]2c2ccc3sccc3c2)cc1` (racemic), half-maximal inhibition in the data set on Plasmodium falciparum (IC50) required 220 nM. Still for that read-out and setting: next, `Cc1ccc([C@@H]2CNC[C@H]2C(=O)NCc2ccc(N(C)C)cc2)cc1Cl` (racemic): 230 nM; `CN(C)c1ccc(CNC(=O)[C@H]2CNC[C@@H]2c2cnc(C(F)(F)F)s2)cc1` (racemic): 1500 nM. On the same count and under the same terms, the figure for `CN(C)c1ccc(CNC(=O)[C@H]2CNC[C@@H]2c2ccc(C(C)(C)C)s2)cc1` (racemic) is 280 nM. `CN(C)c1ccc(CNC(=O)[C@@H]2CNC[C@H]2c2ccc(C(F)(F)F)c(F)c2)cc1` (racemic): the “Intrinsic clearance (CLint)” value in data set [1] was 6.4 µL/min/mg. Further, the IC50 in data set [2] was 8540 nM; on Beta-secretase 1 it was more than 10000 nM; on Plasmepsin 4, more than 10000 nM; against Plasmepsin II, more than 10000 nM; in the data set with Plasmodium falciparum, 140 nM. For the same molecule, the t1/2 in data set [3] stood at 34 min.

In the data set on Plasmodium falciparum, `CN(C)c1ccc(CNC(=O)[C@H]2CNC[C@@H]2c2ccc(C(F)(F)F)nc2)cn1` showed an IC50 of 1000 nM.

In the data set on Plasmodium falciparum, `CN(C)Cc1ccc(CNC(=O)[C@H]2CNC[C@@H]2c2ccc(C(F)(F)F)nc2)cc1` (racemic) returned an IC50 of more than 20000 nM. On the same count and under the same terms, the figure for `CN(C)c1ccc(CNC(=O)[C@H]2CNC[C@@H]2c2cc3ccccc3s2)cc1` (racemic) is 270 nM; for `CN(C)c1ccc(CNC(=O)[C@@H]2CNC[C@H]2c2ccc(C(F)(F)F)cc2Cl)cc1` (racemic) it is 340 nM. The same measure, in the same setting: next, `CN(C)c1ccc(CNC(=O)[C@@H]2CNC[C@H]2c2ccc(Cl)cc2)cc1` (racemic): 680 nM. Same read-out and setting: the figure for `O=C(NCc1ccc(-c2ccccc2)cc1)[C@H]1CNC[C@@H]1c1ccc(C(F)(F)F)nc1` is 5900 nM; for `Cc1ccc([C@@H]2CNC[C@H]2C(=O)NCc2ccc(N(C)C)cc2)cc1` (racemic) it is 750 nM; for `C[C@@H](NC(=O)[C@H]1CNC[C@@H]1c1ccc(C(F)(F)F)nc1)c1ccc(N(C)C)cc1` it is 11000 nM.

Regarding `CN(C)c1ccc(CNC(=O)[C@@H]2CNC[C@H]2c2ccc(Oc3ccccc3)cc2)cc1` (racemic), in data set [1], the “Intrinsic clearance (CLint)” value is 7.2 µL/min/mg. Besides, the IC50 in data set [2] is 2110 nM; on Beta-secretase 1, more than 10000 nM; against Plasmepsin 4, more than 10000 nM; on Plasmepsin II, more than 10000 nM; in the data set on Plasmodium falciparum, 170 nM. Moreover, the t1/2 in data set [3] was found to be 31 min.

Consider `CN(C)c1ccc(CNC(=O)[C@H]2CNC[C@@H]2c2ccc(C(F)(F)F)s2)cc1` (racemic), for which the 50% inhibitory concentration (IC50) in the data set with Plasmodium falciparum was 1100 nM.

For the molecule `C[C@H](NC(=O)[C@@H]1CNC[C@H]1c1ccc(C(F)(F)F)cc1)c1ccc(N(C)C)cc1`, in the data set with Plasmodium falciparum, half-maximal inhibition (IC50) required 130 nM.
